Measured values from ChEMBL document CHEMBL1157312, “DNA methyl transferase inhibiting halogenated monoterpenes from the Madagascar red marine alga Portieria hornemannii” (J Nat Prod, 2006).

Target: DNA (cytosine-5)-methyltransferase 1 (Homo sapiens) (UniProt P26358)
Assay: Inhibition of DNMT1 assessed as drug level causing inhibition by SPA

Sequence of DNA (cytosine-5)-methyltransferase 1 (Homo sapiens) (P26358 whole entry): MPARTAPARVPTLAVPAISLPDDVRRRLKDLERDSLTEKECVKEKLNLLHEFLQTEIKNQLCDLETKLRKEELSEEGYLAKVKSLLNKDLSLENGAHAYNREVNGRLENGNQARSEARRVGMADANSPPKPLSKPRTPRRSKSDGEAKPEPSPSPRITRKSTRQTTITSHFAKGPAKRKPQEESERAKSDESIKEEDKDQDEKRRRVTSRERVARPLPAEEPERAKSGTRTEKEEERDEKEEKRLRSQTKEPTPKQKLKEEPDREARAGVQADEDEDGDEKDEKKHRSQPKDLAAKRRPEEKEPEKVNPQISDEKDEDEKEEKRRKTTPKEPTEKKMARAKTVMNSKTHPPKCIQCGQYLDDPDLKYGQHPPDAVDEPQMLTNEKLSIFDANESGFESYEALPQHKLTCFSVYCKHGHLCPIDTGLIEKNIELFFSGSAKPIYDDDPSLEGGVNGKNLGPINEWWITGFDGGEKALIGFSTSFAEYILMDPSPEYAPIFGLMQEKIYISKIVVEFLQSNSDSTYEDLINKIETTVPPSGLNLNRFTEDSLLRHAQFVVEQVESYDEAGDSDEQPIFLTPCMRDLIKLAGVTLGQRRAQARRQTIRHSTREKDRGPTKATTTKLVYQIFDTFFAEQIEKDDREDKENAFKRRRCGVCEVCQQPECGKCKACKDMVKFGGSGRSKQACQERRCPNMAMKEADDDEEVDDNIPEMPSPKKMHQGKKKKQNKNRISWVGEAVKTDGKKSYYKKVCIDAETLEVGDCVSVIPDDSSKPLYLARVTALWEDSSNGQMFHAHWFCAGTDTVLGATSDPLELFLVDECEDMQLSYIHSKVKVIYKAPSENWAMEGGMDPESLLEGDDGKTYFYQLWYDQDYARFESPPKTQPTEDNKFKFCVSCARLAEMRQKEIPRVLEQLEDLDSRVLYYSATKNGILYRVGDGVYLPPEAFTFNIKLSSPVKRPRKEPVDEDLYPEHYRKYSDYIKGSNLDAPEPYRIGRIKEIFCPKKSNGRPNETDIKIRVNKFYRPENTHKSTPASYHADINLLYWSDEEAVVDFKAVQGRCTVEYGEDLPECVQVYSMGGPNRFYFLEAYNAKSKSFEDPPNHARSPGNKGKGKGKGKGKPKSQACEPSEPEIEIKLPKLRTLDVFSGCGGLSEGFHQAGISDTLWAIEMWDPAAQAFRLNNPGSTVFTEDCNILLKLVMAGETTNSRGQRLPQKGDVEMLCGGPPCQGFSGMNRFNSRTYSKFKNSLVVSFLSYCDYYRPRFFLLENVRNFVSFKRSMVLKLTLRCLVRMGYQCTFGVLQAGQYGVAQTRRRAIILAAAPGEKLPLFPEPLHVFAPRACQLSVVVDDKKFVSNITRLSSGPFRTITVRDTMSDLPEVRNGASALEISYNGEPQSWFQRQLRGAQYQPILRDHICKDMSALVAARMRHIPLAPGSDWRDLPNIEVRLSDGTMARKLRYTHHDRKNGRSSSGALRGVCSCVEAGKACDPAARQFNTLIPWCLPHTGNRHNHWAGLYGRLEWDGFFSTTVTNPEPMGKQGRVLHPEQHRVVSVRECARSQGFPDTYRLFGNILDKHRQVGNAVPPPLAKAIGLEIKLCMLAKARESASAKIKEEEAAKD

| Activity | Structure (SMILES) |
| --- | --- |
| 55 µM | C=C(Cl)/C(=C\Br)CCC(Br)C(C)(C)Cl (centres undefined) |
| 1.65 µM | C=C(Cl)/C(=C\Br)CCC(Br)=C(C)C |
| 1.25 µM | C=C(Cl)[C@](Cl)(CBr)CC[C@@H](Br)C(C)(C)Cl |
| 21.9 µM | C=C[C@](Cl)(CBr)CC[C@@H](Br)C(C)(C)Cl |
